According to paper PMC6155852, “Oral Administration of the Japanese Traditional Medicine Keishibukuryogan-ka-yokuinin Decreases Reactive Oxygen Metabolites in Rat Plasma: Identification of Chemical Constituents Contributing to Antioxidant Activity” (Molecules : A Journal of Synthetic Chemistry and Natural …, 2017):
“And” between values parts separate entries of the source, which are not always exact repeats. Equal values may be shown once. Read-outs that look alike come from different tables or passages of the source.

How the values were obtained:
[1] = Lipid hydroperoxide (LPO) generation assay (linoleic acid, Fenton reaction); assay type: biochemical
Procedure: Antioxidant assays using linoleic acid with a purity of 98.0% (Wako Pure Chemical Ind.) were performed using a described protocol with modifications. Briefly, 20 μL of 1% linoleic acid in methanol, 20 μL of 20 mmol/L ferrous chloride in water, 20 μL of test sample in DMSO, and 150 μL of a mixed solution (1:1) of methanol and 20 mmol/L phosphate buffer (pH 7.0) were added to 96-well polypropylene plates. After incubation at room temperature in the dark for 1 h, 10 μL of the reaction products were transferred to 200 μL of a methanol solution containing 39 mmol/L ammonium thiocyanate, 0.2 mmol/L ferrous chloride, and 0.01 mol/L hydrochloride. After incubation for 15 min, absorbance at 500 nm was measured using a microplate reader (Multiskan GO, Thermo Fisher Scientific Inc., Waltham, MA, USA). The concentration of lipid hydroperoxide (LPO) products was calculated conveniently using standard curves of serially-diluted linolein hydroperoxides (Cayman Chemical). The percentage of control was calculated using the following formula; (A − B)/(C − B) × 100, with A = test sample, B = linoleic acid alone, and C = vehicle control. Ascorbic acid was used as a reference agent.

[2] = Plasma pharmacokinetics of KBGY constituents in rats after single oral administration of KBGY; assay type: in vivo, rat
Procedure: KBGY prepared in water was administered orally to 16 h fasted rats at a dose of 2 g/10 mL/kg (n = 3). […] Plasma was obtained by centrifugation at 1700× g for 15 min at 4 °C and stored at −80 °C until analysis.
For quantification of the dicarboxylic acid, 50 µL of standard solution, 100 µL of acetic acid (2%, v/v), and 650 µL of ethyl acetate were added to 200 µL of plasma samples, followed by mixing and centrifugation (7000× g, 5 min). The supernatants were collected and dried with a centrifugal evaporator and concentration system (CC-105; TOMY SEIKO Co., Tokyo, Japan). The residue was dissolved with 100 µL acetonitrile and 50 µL BF3/butanol solution; the dissolved solution was incubated for 1 h at 60 °C. The reaction was terminated by the addition of 50 µL of water and hexane, 150 µL of a saturated solution of sodium chloride, and 400 µL of hexane. The solution was vortexed for 2 min, and the supernatant was obtained by centrifugation (7000× g, 5 min). Liquid–liquid extraction was repeated twice. The corrected supernatant was dried with the centrifugal evaporator and concentration system. The dried residue was dissolved in 100 µL of acetonitrile containing 1 µg/mL of o-terphenyl (Tokyo Chemical Ind. Co.) as an internal standard (IS). Five microliters of the solution was then injected into the GC/MS system.
For quantification of volatile organic compounds (cinnamaldehyde, methyl cinnamate, 2-methoxycinnamaldehyde, mandelonitrile, salicylaldehyde, eugenol, cinnamyl alcohol, and 3-phenylpropyl acetate), 25 µL of standard solution, 25 µL of 2 µg/mL of 1,4-dibromobenzene (Tokyo Chemical Ind. Co.) as IS, and 500 µL of acetonitrile were added to 200 µL of plasma samples, followed by mixing and centrifugation (7000× g, 5 min). Five microliters of the supernatant was then injected into the GC/MS system.
For quantification of other compounds, 25 µL of standard solution, 25 µL of 2 ng/mL of atropine sulfate monohydrate (Wako Pure Chemical Ind.) or niflumic acid (Sigma-Aldrich) as IS, and 750 µL of methanol were added to 200 µL of plasma samples, followed by mixing and centrifugation (7000× g, 5 min). The supernatant was obtained and dried with the centrifugal evaporator and concentration system after 150 µL of propylene glycol (1%, v/v) was added to the supernatant. The dried residue was then dissolved in 60 μL of the HPLC mobile phase for each analytical method, and a 10 or 20 μL portion was injected into the LC/MS/MS system.
Plasma pharmacokinetic data were analyzed by noncompartmental modeling using Phoenix WinNonlin (version 6.3, Certara L.P., St. Louis, MO, USA) to determine various pharmacokinetic constants, including the maximum concentration (Cmax), time to maximum concentration (tmax), apparent elimination half-life (t1/2), and area under the plasma concentration-time curve from zero to last observation time (AUC0–last). The t1/2 was divided by loge^2/ke, where ke was the terminal elimination (at least three data points on the descending linear limb) rate constant.

[3] = ROS scavenging assay (hydrogen peroxide-dependent oxidation); assay type: biochemical; conditions: for IC50: concentration-dependency, Figure 4
Procedure: Hydrogen peroxide-dependent oxidation tests were performed using Oxiselect™ In Vitro ROS/RNS Assay kits (Cellbiolab Inc., San Diego, CA, USA) according to the manufacturer’s protocol. Briefly, a test sample was mixed with hydrogen peroxide (final concentration: 2.5 μmol/L) and incubated for 5 min. A fluorescent reaction was started by the addition of a fluorescent probe (dichrolodihydrofluorescin-DiOxyQ) at room temperature. After incubation for 15 min, relative fluorescent units (RFUs) were measured at […] using a fluorescent plate reader (Infinite M200; Tecan Trading AG, Männedorf, Switzerland). The percentage of control was calculated using the following formula; (A − B)/(C − B) × 100, with A = test sample, B = fluorescent probe alone, and C = vehicle control. (+)-Ascorbic acid was used as a reference agent.

[4] = 10 μmol/L, more than 100% = no activity
[5] = 1 μmol/L, C.I. = complete inhibition
[6] = 10 μmol/L, C.I. = complete inhibition, more than 100% = no activity
[7] = rat plasma, single oral KBGY 2 g/kg

Structure (SMILES): COc1cc([C@H]2OC[C@H]3[C@@H]2CO[C@@H]3c2cc(OC)c(O)c(OC)c2)cc(OC)c1O (racemic) [(±)-Syringaresinol]
- Antioxidant Activity (% of Control) LPO Generation ([1]; 1 μmol/L): 107.4 ± 4.2 % of Control
- Antioxidant Activity (% of Control) LPO Generation [1, 4]: 68.4 ± 3.3 % of Control
- Antioxidant Activity (% of Control) LPO Generation ([1]; 10 μmol/L, more than 100% = no activity, listed as (±)-syringaresinol): less than 80 % of Control
- AUC0–last ([2]; rat, in vivo, po, 2 g/kg): 0.0771 ng·h/mL
- Tmax ([2]; rat, in vivo, po, 2 g/kg): 0.25 h
- Antioxidant Activity (% of Control) ROS Scavenge [3, 5]: 39.4 ± 2.4 % of Control
- anti-ROS activity ([3]; 10 μmol/L): strong anti-ROS activity
- Antioxidant Activity (% of Control) ROS Scavenge [3, 6]: C.I.

Structure (SMILES): COc1cc(C(=O)O)cc(O)c1O [3-O-Methylgallic acid]
- AUC(0-t) ([2]; rat, in vivo, po, 2 g/kg): 58.6 ng·h/mL
- Cmax ([2]; rat, in vivo, po, 2 g/kg): 12.7 ng/mL and 69 nM
- Tmax ([2]; rat, in vivo, po, 2 g/kg): 1 h
- half-life ([2]; rat, in vivo, po, 2 g/kg): 6.59 h
- anti-ROS activity ([3]; 10 μmol/L): strong anti-ROS activity
- Antioxidant Activity (% of Control) ROS Scavenge [3, 6]: C.I.
- IC50 [3]: 744 nM

Structure (SMILES): COc1c(O)cc(C(=O)O)cc1O [4-O-Methylgallic acid]
- Antioxidant Activity (% of Control) LPO Generation [1, 4]: 105.4 ± 2.5 % of Control
- AUC(0-t) ([2]; rat, in vivo, po, 2 g/kg): 479 ng·h/mL
- Cmax ([2]; rat, in vivo, po, 2 g/kg): 159 ng/mL and 863 nM
- Tmax ([2]; rat, in vivo, po, 2 g/kg): 1 h
- half-life ([2]; rat, in vivo, po, 2 g/kg): 0.906 h
- Antioxidant Activity (% of Control) ROS Scavenge [3, 6]: 86.8 ± 0.2 % of Control

Structure (SMILES): O=C1O[C@H]([C@@H](O)CO)C(O)=C1O [(+)-Ascorbic acid, reference compound]
- Antioxidant Activity (% of Control) ROS Scavenge ([3]; 114 μmol/L, reference agent): 14.5 ± 0.6 % of Control and 20.2 ± 0.6 % of Control

Structure (SMILES): Oc1cc(O)c2c(c1)O[C@H](c1ccc(O)c(O)c1)[C@@H](O)C2 [(+)-Catechin]
- Antioxidant Activity (% of Control) LPO Generation [1, 4]: 95.4 ± 3.9 % of Control
- AUC0–last ([2]; rat, in vivo, po, 2 g/kg): 65.1 ng·h/mL
- Tmax ([2]; rat, in vivo, po, 2 g/kg): 2 h
- anti-ROS activity ([3]; 10 μmol/L): strong anti-ROS activity
- Antioxidant Activity (% of Control) ROS Scavenge [3, 6]: 7.3 ± 1.1 % of Control
- IC50 [3]: 621 nM

Structure (SMILES): O=C(O)/C=C/c1ccccc1 [(E)-Cinnamic acid]
- Antioxidant Activity (% of Control) LPO Generation [1, 4]: 104.3 ± 2.3 % of Control
- Antioxidant Activity (% of Control) ROS Scavenge [3, 6]: 108.7 ± 2.2 % of Control

Structure (SMILES): O=C(O)CCCCC(=O)O [Adipic acid]
- Antioxidant Activity (% of Control) LPO Generation [1, 4]: 103.6 ± 2.9 % of Control
- AUC(0-t) ([2]; rat, in vivo, po, 2 g/kg): 17.1 ng·h/mL
- Cmax ([2]; rat, in vivo, po, 2 g/kg): 14.4 ng/mL and 99 nM
- Tmax ([2]; rat, in vivo, po, 2 g/kg): 6 h
- Antioxidant Activity (% of Control) ROS Scavenge [3, 6]: 97.0 ± 0.9 % of Control

Structure (SMILES): C[C@]12C[C@@H](O)[C@@H]3C[C@@]1(O[C@@H]1O[C@H](CO)[C@@H](O)[C@H](O)[C@H]1O)[C@@]3(COC(=O)c1ccccc1)C(=O)O2 [Albiflorin]
- Antioxidant Activity (% of Control) LPO Generation [1, 4]: 101.6 ± 2.2 % of Control
- AUC0–last [2, 7]: 64.9 ng·h/mL
- Tmax [2, 7]: 0.5 h
- t1/2 [2, 7]: 1.6 h
- Antioxidant Activity (% of Control) ROS Scavenge [3, 6]: 104.2 ± 1.1 % of Control

Structure (SMILES): N#C[C@H](O[C@@H]1O[C@H](CO[C@@H]2O[C@H](CO)[C@@H](O)[C@H](O)[C@H]2O)[C@@H](O)[C@H](O)[C@H]1O)c1ccccc1 [Amygdalin]
- Antioxidant Activity (% of Control) LPO Generation [1, 4]: 102.0 ± 2.1 % of Control
- AUC(0-t) ([2]; in vivo, rat plasma, single oral KBGY 2 g/kg, read-out: AUC0–last): 79.9 ng·h/mL
- Cmax ([2]; in vivo, rat plasma, single oral KBGY 2 g/kg, read-out: Cmax): 37.7 ng/mL and 82 nM
- half-life ([2]; in vivo, rat plasma, single oral KBGY 2 g/kg, read-out: t1/2 (converted)): 0.657 h
- Tmax ([2]; in vivo, rat plasma, single oral KBGY 2 g/kg, read-out: tmax): 0.5 h
- Antioxidant Activity (% of Control) ROS Scavenge [3, 6]: 106.4 ± 0.5 % of Control

Structure (SMILES): O=C(O)CCCCCCCC(=O)O [Azelaic acid]
- Antioxidant Activity (% of Control) LPO Generation [1, 4]: 97.9 ± 4.4 % of Control
- AUC(0-t) ([2]; rat, in vivo, po, 2 g/kg): 39.9 ng·h/mL
- Cmax ([2]; rat, in vivo, po, 2 g/kg): 54.7 ng/mL and 291 nM
- Tmax ([2]; rat, in vivo, po, 2 g/kg): 0.25 h
- Antioxidant Activity (% of Control) ROS Scavenge [3, 6]: 100.4 ± 0.7 % of Control

Structure (SMILES): O=C/C=C/c1ccccc1 [Cinnamaldehyde]
- Antioxidant Activity (% of Control) LPO Generation [1, 4]: 109.8 ± 3.9 % of Control
- AUC(0-t) ([2]; rat, in vivo, po, 2 g/kg): 51.6 ng·h/mL
- Cmax ([2]; rat, in vivo, po, 2 g/kg): 11.5 ng/mL and 87 nM
- Tmax ([2]; rat, in vivo, po, 2 g/kg): 1 h
- half-life ([2]; rat, in vivo, po, 2 g/kg): 5.21 h
- Antioxidant Activity (% of Control) ROS Scavenge [3, 6]: 103.8 ± 1.1 % of Control

Structure (SMILES): C=C(CC[C@@H](C(=O)O)[C@H]1[C@H](O)C[C@@]2(C)C3=CC[C@H]4C(C)(C)[C@@H](O)CC[C@]4(C)C3=CC[C@]12C)C(C)C [Dehydrotumulosic acid]
- Antioxidant Activity (% of Control) LPO Generation [1, 4]: 97.4 ± 3.1 % of Control
- AUC(0-t) ([2]; rat plasma, single oral KBGY 2 g/kg, read-out: AUC0–last): 39.5 ng·h/mL
- Cmax ([2]; rat plasma, single oral KBGY 2 g/kg, read-out: Cmax): 15.5 ng/mL and 32 nM
- half-life ([2]; rat plasma, single oral KBGY 2 g/kg, read-out: t1/2 (converted)): 3.81 h
- Tmax ([2]; rat plasma, single oral KBGY 2 g/kg, read-out: tmax): 0.5 h
- Antioxidant Activity (% of Control) ROS Scavenge [3, 6]: 106.0 ± 0.4 % of Control

Structure (SMILES): OC[C@H](Cc1cccc(O)c1)[C@H](CO)Cc1cccc(O)c1 [Enterodiol]
- Antioxidant Activity (% of Control) LPO Generation ([1]; 1 μmol/L): 95.2 ± 4.4 % of Control
- Antioxidant Activity (% of Control) LPO Generation [1, 4]: 84.9 ± 3.1 % of Control
- AUC(0-t) ([2]; rat, in vivo, po, 2 g/kg): 2.91 ng·h/mL
- Cmax ([2]; rat, in vivo, po, 2 g/kg): 1.03 ng/mL and 3 nM
- Tmax ([2]; rat, in vivo, po, 2 g/kg): 0.5 h
- half-life ([2]; rat, in vivo, po, 2 g/kg): 27.3 h
- Antioxidant Activity (% of Control) ROS Scavenge [3, 5]: 67.6 ± 2.4 % of Control
- anti-ROS activity ([3]; 10 μmol/L): strong anti-ROS activity
- Antioxidant Activity (% of Control) ROS Scavenge [3, 6]: C.I.

Structure (SMILES): C=C(CC[C@@H](C(=O)O)[C@H]1[C@H](O)C[C@@]2(C)C3=C(CC[C@]12C)[C@@]1(C)CC[C@H](OC(C)=O)C(C)(C)[C@@H]1CC3)C(C)C [Pachymic acid]
- AUC(0-t) ([2]; rat, in vivo, po, 2 g/kg): 5.29 ng·h/mL
- Cmax ([2]; rat, in vivo, po, 2 g/kg): 1.21 ng/mL and 2 nM
- Tmax ([2]; rat, in vivo, po, 2 g/kg): 4 h
